Data as given in US12234288B2, “Immunogenic arginase 2 polypeptides” (IO Biotech ApS, priority 2018, dated 2025).
Entries after “also recorded” stand apart in the source; their conditions may differ.

How the values were obtained:
[1] = tested on: PBMCs (CD4+ and CD8+ T cells); experiment: Intracellular cytokine staining (IFNγ, TNFα) of peptide-stimulated PBMCs by flow cytometry; format: cell-based, human; conditions: for double positive (DP) CD4+ cells: FIG. 6; for intracellular cytokine staining for IFNy and TNFα production: healthy donors and cancer patients with solid tumors, Example 2, FIG. 14B/15D
Description: Intracellular staining of cell cultures was performed after PBMCs were stimulated with arginase-derived peptides (or incubated with no peptide as a control) for 5 hours in the presence of BD GolgiPlug™ (added after the first hour of peptide stimulation). Stimulated cells were stained with fluorescently labeled antibodies for surface markers (CD3, CD4, CD8) and thereafter permeabilized by using Fixation/Permeabilization and Permeabilization Buffer (eBioscience, cat. 00-{5123-43), according to manufacturer's instructions. Permeabilized cells were then stained with fluorochrome-labeled antibodies for IFNγ and TNFα. Flow cytometry analysis was performed on a FACSCanto™ II (BD Biosciences). Antibodies used: IFNγ-APC (cat.341117), TNFα-[…] BV421 (cat.562783), CD4-FITC (cat.347413), CD8-PerCP (cat.345774), CD3-APC-H7 (cat. 560275) (all from BD Biosciences), dead cells stain-FVS510 (564406, BD Biosciences) according to manufacturer's instructions.
Intracellular staining of cell cultures was performed on PBMCs after one week of ARG2-derived peptide stimulation in vitro. For the assay, 9×10^5 PBMCs were re-stimulated with ARG2-derived peptides (or incubated with no peptide as a control) for 5 hours in the presence of BD GolgiPlug™ (added after the first hour of peptide stimulation). Stimulated cells were stained with fluorescently labeled antibodies for surface markers (CD3, CD4, CD8) and thereafter permeabilized by using Fixation/Permeabilization and Permeabilization Buffer (eBioscience, cat. 00-{5123-43), according to manufacturer's instructions. Permeabilized cells were then stained with fluorochrome-labeled antibodies for IFNγ and TNFα. Flow cytometry analysis was performed on a FACSCanto™ II (BD Biosciences). Antibodies used: IFNγ-APC, TNFα-BV421, CD4-PerCP, CD8-FITC, CD3-APC-H7, CD4-FITC, CD8-PerCP, and dead cells stain-FVS510 (all from BD Biosciences) according to manufacturer's instructions. For intracellular cytokine staining to detect cytokine production of ARG2-specific T cells in response to target cells, 5×10^5 ARG2 specific cells were incubated with 2.5×10^5 target cells for 5 hours with GolgiPlug™ added after the first hour.

[2] = tested on: PBMCs from healthy donors and cancer patients; experiment: IFNγ ELISPOT of PBMCs pre-stimulated one week in vitro with peptide and low-dose IL-2; format: cell-based, human; conditions: for IFNγ ELISPOT response: ARG2 peptide library screen, PBMCs from 6 healthy donors, FIG. 3
Description: For in vitro ELISPOT, PBMCs from cancer patients and healthy donors were pulsed with 20 μM of […] (or with no peptide as a control) and 120 U/ml IL-2 in 24-well plates for 7 days before being used in an ELISPOT assay. The cells were placed in 96-well nitrocellulose ELISPOT plates (MultiScreen MAIP N45; Millipore) pre-coated with IFNγ capture antibody (Mabtech). Arginase peptides added to a final concentration of 5 μM and plates incubated at 37° C. for 14-16 hours. After the incubation the cells were washed off and secondary biotinylated Ab (Mabtech, cat. 3420-{6-1000) was added for 2 hours at room temperature. Unbound secondary antibody was washed off and streptavidin conjugated alkaline phosphatase (AP) (Mabtech, cat. 3310-10) was added for 1 hour at room temperature. Unbound conjugated enzyme was washed off and the assay was developed by adding BCIP/NBT substrate (Mabtech, cat. 3650-10). Developed ELISPOT plates were analyzed on CTL ImmunoSpot S6 Ultimate-V analyzer using Immunospot software v5.1. Responses were reported as the difference between average numbers of spots in wells stimulated with arginase2 and wells without added peptide.
To test whether these peptides could be used to identify Arginase2 responses, PBMCs from 12 healthy donors and one cancer patients were screened for responses in IFNγ ELISPOT. PBMCs were stimulated with Arginase2 peptides and low dose IL-2 for 1 week prior to ELISPOT.
The entire arginase2 protein sequence was divided into overlapping 20-amino-acid-long peptides (with a final peptide of 24 amino acids), generating a library of 34 peptides covering the whole sequence (SEQ ID NOs 1-34)). Each peptide in the library overlapped with the first 10 amino acids of the following peptide. Using this arginase2 peptide library and the IFNγ ELISPOT assay, we next screened PBMCs from 6 healthy donors for spontaneous responses. The PBMCs were stimulated for one week with a pool of 3-4 adjacent 20-mer arginase2 library peptides and low-dose IL-2 (120 U/mL). They were then set up for an IFNγ ELISPOT assay to screen for responses against each 20-mer peptide separately.
PBMCs from two healthy donors were stimulated for one week with a single peptide and low-dose IL-2 (120 U/mL) before IFNy ELISPOTassay to validate the responses observed in the library screen.
PBMCs from […] were stimulated for one week with a single peptide and low-dose IL-2 (120 U/mL) before IFNy ELISPOTassay to validate the responses observed in the library screen. ARG2_1, ARG2_5, ARG2_13, ARG2_18 and ARG2_22 were tested in this validation.
ARG2_1 was used to screen for responses in 8 melanoma patients (AA07-AA31), 4 prostate cancer patients (UR07-27) and 13 healthy donors. PBMCs from each were stimulated for one week with a single peptide and low-dose IL-2 (120 U/mL) before IFNy ELISPOT assay.
PBMCs from healthy donors or cancer patients were stimulated with 10 μM of ARG2-derived peptides in vitro to enhance assay sensitivity. On day 2, IL-2 was added to a total of 120 U/ml IL-2 (Novartis). After 7 days, 4-6×10^5 PBMCs were placed at the bottom of an ELISPOT plate pre-coated with IFNy capture antibody (Mabtech). PBMCs from each donor or patient were set up in triplicates or quadruplicates for peptide (5 μM ARG2-derived peptide) and control stimulations. Cells were incubated in ELISPOT plates in the presence of an antigen for 14-16 hrs after which they were washed off and secondary biotinylated antibody (Mabtech) was added. After two hour incubation the secondary antibody was washed off before addition of streptavidin conjugated alkaline phosphatase (Mabtech) for 1 hr. Next, unbound enzyme was washed off and the assay was developed by adding BCIP/NBT subtrate (Mabtech). Developed ELISPOT plates were analyzed on CTL Immunospot S6 Ultimate-V analyzer with ImmunoSpot software, version 5.1. […]

| Sequence | double positive (DP) CD4+ cells ([1]; healthy donor Buf-M-01, IFN-gamma and TNF-alfa) [%] | double positive (DP) CD4+ cells ([1]; healthy donor Buf-M-02, IFN-gamma and TNF-alfa) [%] | intracellular cytokine staining for IFNy and TNFα production [1] | CD8+ T cell response in intracellular cytokine staining ([1]; one cancer patient, FIG. 9) | CD8+ DP cells ([1]; prostate cancer patient UR12, control 0.5%, FIG. 9) [%] | CD4+ T cell response in intracellular cytokine staining ([1]; two healthy donors, Example 1, FIG. 6) | donors with significant IFNy ELISPOT responses ([2]; 8 melanoma patients, 4 prostate cancer patients and 13 healthy donors (15 out of 25), FIG. 8) [%] | screened donors with significant IFNy ELISPOT responses ([2]; 33 HDs and 19 cancer patients with solid tumors, FIG. 14A) | IFNγ ELISPOT response ([2]; listed as ARG2-1) | IFNγ ELISPOT response ([2]; listed as Arg2_1) | AML patients with a significant IFNy ELISPOT response ([2]; PBMCs from patients diagnosed with AML, FIG. 14A) | IFNy ELISPOT response ([2]; healthy donors and cancer patients, FIG. 14) | IFNy ELISPOT response ([2]; validation of other regions, PBMCs from four healthy donors, FIG. 5) | IFNy ELISPOT response ([2]; validation of other regions, PBMCs from four healthy donors, FIG. 5, listed as Arg2_1) | donors in which A2L2 immune responses were higher than ARG2-1 responses ([2]; 6 healthy donors, not significant (p=0.0625), FIG. 15B) | IFNy ELISPOT response ([2]; 30 healthy donors and 18 cancer patients, FIG. 15) | donors with IFNy ELISPOT responses ([2]; 30 healthy donors and 18 cancer patients, FIG. 15C) | IFNy ELISPOT response to long peptides ([2]; PBMCs from 6 healthy donors stimulated once, FIG. 15A) | immune responses compared to ARG2-1 responses in the same donor ([2]; not significant (p=0.7038), FIG. 15E) |
| --- | --- | --- | --- | --- | --- | --- | --- | --- | --- | --- | --- | --- | --- | --- | --- | --- | --- | --- | --- |
| LQTRVHSILKKSVHSVAVIG (listed as Homo sapiens) [ARG2_1, polypeptide derived from human Arginase2, aa11-30] | 0.2 | 0.1 | primarily showed CD4+ responses | release more of IFN-gamma (y-axis) and TNF-alfa (x-axis) | 0.9 | reacting specifically; also recorded: release both IFN-gamma (y-axis) or TNF-alfa (x-axis) | 60 | around 75% | highest and most frequent responses | highest responses | 3 out of 9 | Strong and frequent responses; also recorded: widely recognized | Strong and prominent responses | strong and prominent responses | – | – | – | – | – |
| SLRGSLSRLLQTRVHSILKKSVHSVAVIGAPFS (listed as Homo sapiens) [A2L2, long ARG2 peptide, aa2-34, 33-mer] | – | – | only CD4+ responses | – | – | – | – | – | – | – | – | – | – | – | 5 out of 6 | strong and frequent CD4+ T-cell responses | about 80% | strongest and most frequent immune responses | on average higher |
